1 compound from article PMC5365662, “A Short Double-Stapled Peptide Inhibits Respiratory Syncytial Virus Entry and Spreading” (Antimicrobial Agents and Chemotherapy, 2017) can be followed below.

Each structure is given as a SMILES string. “Also recorded” adds a separate entry of the source. Bridge positions count the residues as written; N and C are the ends. Square brackets hold non-standard residues; d marks the D form. Peptide text beside a SMILES is read from it. R5 = C=CCCC[C@@](C)(N)C(=O)O; S5 = C=CCCC[C@](C)(N)C(=O)O

Data set [1] is described as follows: Temperature-dependent CD (T ramp), oligomeric state. The class given is physicochemical. Particulars: 25 and 50 μM peptide, 25°C to 90°C in 5°C increments. The procedure: The temperature was increased from 25°C to 90°C in 5°C increments. […] Next, HEp-2 cells were infected with a recombinant RSV expressing the mCherry reported gene ([24]), and the inhibitory activity of the double-stapled peptides was quantified by fluorescence readout.
B) […]. The cell holding the sample was heating at the desired temperature and the CD spectra was measured as described in material and methods. The temperature was increased from 25 °C to 90 °C by 5 °C increments.
Panel C) and D) are the CD curve performed at 25 °C prior to increase the temperature (unheated) and after letting the sample heated at 90 °C (heated) cool down to 25 °C. […]

For data set [2], the system named is rHRSV-mCherry in HEp-2 cells. Put plainly: rHRSV-mCherry inhibition assay. The class given is cell-based, human respiratory syncytial virus. Put shortly:
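HEp-2 cells infected at MOI 0.2 with rHRSV-mCherry preincubated 15–20 min with serially diluted peptide, peptide kept in 2% FBS medium for 48 h at 37°C. Replication read as mCherry fluorescence (ex 580/em 620 nm), normalized to untreated infected cells; duplicates, curves fitted.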

Data set [3] is described as follows: Far-UV circular dichroism, α-helical content. Particulars: CD, 10 mM phosphate buffer pH 7.5, 50 μM peptide, 25°C. Format: physicochemical. The protocol:
The circular dichroism spectra were acquired on a Chirascan spectropolarimeter. The samples were prepared in 10 mM phosphate buffer, pH 7.5, at a peptide concentration of 50 μM. Data were recorded at 25°C by step scan from 180 nm to 260 nm in a 0.5-mm path length quartz cell using 1-nm wavelength increments and a response time of 1 s. The data were converted to per residue molar ellipticity units [θ] (degree per square centimeter per decimole per residue) and smoothed using the Igor Pro software. The percentage of helicity was calculated as described previously ([35]).

Data set [4] in a line: Proteolytic stability assay, chymotrypsin. The class given is in vitro ADME. Particulars: chymotrypsin (isolated protease); 10 μl peptide 0.29 mM in 990 μl 100 mM Tris-HCl pH 8.0, 10 mM CaCl2; 10 μl chymotrypsin 50 μg/ml; 25°C; LC-MS of intact peptide, exponential decay fit; 3 experiments. The procedure: This is an important parameter to assess for the development of peptide therapeutics. Peptides 4bb, 4ca, and 4a, and the unstapled analog peptide 4, as well as both SAH-RSVFBD isomers, were treated with chymotrypsin or trypsin, and the samples were analyzed by LC/MS to quantify the reaction products over time. […] In comparison, both SAH-RSVFBD isomers were more susceptible to proteolytic degradation, with half-lives of approximately 7 h and 5 min against chymotrypsin and trypsin, respectively.
In vitro proteolytic degradation was measured via LC-MS using an Agilent Infinity 1280 UHPLC system coupled to an Agilent quadrupole time of flight (QTOF) 6530 instrument with an Agilent Jet Stream electrospray ionization (AJS ESI) source (all from Agilent Technologies, Waldbronn, Germany). Five microliters of digested sample was injected onto a C18 column (Zorbax Eclipse Plus RRHD, 1.8 μm, 2.1 by 100 mm; Agilent Technologies, Waldbronn, Germany) equilibrated with solvent A (5% acetonitrile, 0.2% formic acid) and eluted with a flow rate of 0.4 ml/min over a 5 to 95% gradient of solvent B (95% acetonitrile, 0.2% formic acid) in 5 min, followed by 1.5 min at 95% and 0.5 min posttime. The AJS ESI source was operated with a capillary voltage of 4,000 V and a nozzle voltage of 600 V with a drying gas temperature of 325°C and flow rate of 10 liters/min, nebulizing gas pressure of 20 lb/in^2, and a sheath gas temperature of 300°C and flow rate of 11 liters/min. Mass spectra were acquired in the positive-ion mode from 100 to 3,200 m/z at a rate of 1 scan per second in extended dynamic range (2 GHz) mode. The fragmentor, skimmer, and octopole RF voltages were set to 200, 60, and 750 V, respectively. Data were acquired and analyzed with the Agilent MassHunter Workstation (version B.05).
Peptide digestion was performed as follows: 10 μl of peptide at 0.29 mM in 50:50 acetonitrile-water was dissolved in 990 μl 100 mM Tris-HCl (pH 8.0) with 10 mM CaCl2. Following measurement of the undigested (t0) sample, 10 μl of chymotrypsin at 50 μg/ml in 100 mM Tris-HCl (pH 8.0) with 10 mM CaCl2 was added, and the sample was vortexed and placed immediately in the autosampler, set to 25°C. The level of intact peptide was quantified by serial injection over time. Integration of the intact peptide compound chromatogram was performed using the Agilent Molecular Feature Extraction (MFE) algorithm. The value of the fit at t = 0 min was used to calculate the percentage of the intact peptide at each point as follows: Percent intact (t) = [Vol (t)/Volt0] × 100, where Vol is the total volume calculated using Find Compounds by Molecular Feature and Volt0 is the value of the fit at time t = 0. A plot of the intact peptide MFE peak area over time gave an exponential decay curve, from which the half-life was determined using MatLab […].

For the compound `CC[C@H](C)[C@@H]1NC(=O)[C@H](Cc2ccccc2)NC(=O)[C@@](C)(NC(=O)[C@H](CC(C)C)NC(=O)[C@H](CO)NC(=O)[C@]2(C)CCCC=CCCC[C@@](C)(NC(=O)[C@H](CCC(=O)O)NC(C)=O)C(=O)N[C@@H]([C@@H](C)CC)C(=O)N[C@@H](CC(N)=O)C(=O)N2)CCCC=CCCC[C@@](C)(C(=O)N[C@@H](CO)C(=O)N[C@@H](CC(=O)O)C(=O)N[C@@H](CCC(=O)O)C(=O)N[C@@H](CC(C)C)C(=O)N[C@@H](CC(C)C)C(=O)N[C@@H](Cc2c[nH]cn2)C(=O)N[C@@H](CC(N)=O)C(=O)N[C@H](C(N)=O)C(C)C)NC(=O)[C@H](CCCNC(=N)N)NC1=O` [Peptide 4ca] (Ac-E[R5]IN[S5]SL[S5]FIR[S5]SDELLHNV-NH2; staple 2-5, 8-12), in data set [1], the “conformational change / aggregation on temperature ramping” value is “No significant conformational change; also recorded: does not aggregate”. For the same compound, the EC50 amounted to 8300 nM in data set [2] (HEp-2, rHRSV-mCherry MOI 0.2, addition of peptide after infection of cells, 48 h p.i.); 860 nM in data set [2] (HEp-2, rHRSV-mCherry MOI 0.2, preincubation of the virus with peptide prior to cell infection, 48 h p.i.); 470 nM in data set [2] (HEp-2, rHRSV-mCherry MOI 0.2, preincubation of virus with peptide and peptide maintained in medium after infection, 48 h p.i.); 590 ± 130 nM in data set [2] (HEp-2 cells, RSV-Cherry MOI 0.2, peptide and virus removed after infection and fresh peptide added, mCherry fluorescence 48 h p.i., at least twice in duplicate); 780 ± 60 nM in data set [2] (Table 3 (Ala scan), HEp-2 cells, rHRSV-mCherry MOI 0.2, 2-fold serial dilutions (11 dilutions), duplicate, ± SD of fit). For the same compound, in data set [2] (HEp-2, rHRSV-mCherry, EC50 versus T118 EC50 6.33 μM), the “increase of antiviral potency relative to T118” value turned out to be 11 fold. Also, the results for the “% Helicity” value in data set [3] (Table 2) and in data set [3] (Table 3 (Ala scan)) were greater than 100% and 85%, respectively. Besides, the half-life at 2.9 µM in data set [4] is 180 h.
